Here are results for two substances from US5582981A, “Method for identifying an oligonucleotide aptamer specific for a target” (priority 1994, dated 1996).

For the data set, the system named is thrombin. Kind of data set: clotting time for thrombin-catalyzed conversion of fibrinogen to fibrin. The format is biochemical. As to conditions: thrombin 10 nM, 7 mer at 20 μM; thrombin alone 24 sec. As for the experimental part:
Clotting time for the thrombin-catalyzed conversion of fibrinogen (2.0 mg/ml in selection buffer) to fibrin at 37° C. was measured using a precision coagulation timer apparatus (Becton-Dickinson, Cat. nos. 64015, 64019, 64020). Thrombin (10 nM) incubated with fibrinogen alone clotted in 40 sec, thrombin incubated with fibrinogen and P1 nuclease (Boehringer-Mannheim, Indianapolis, Ind.) clotted in 39 sec, thrombin incubated with fibrinogen and aptamer clone #5 (200 nM) clotted in 115 sec, and thrombin incubated with fibrinogen, clone #5 (200 nM) and P1 nuclease clotted in 40 sec. All incubations were carried out at 37° C. using reagents prewarmed to 37° C. Aptamer DNA or, when present, P1 nuclease, was added to the fibrinogen solution prior to addition of thrombin.
Inhibition of thrombin activity was studied using a consensus-related sequence 7 mer, 5' GGTTGGG 3' (SEQ ID NO: 15), and a control 7 mer with the same base composition but different sequence (5' GGGGGTT 3') (SEQ ID NO: 16). Clotting times were measured using the timer apparatus as above. The thrombin clotting time in this experiment was 24 sec using thrombin alone (10 nM), 26 sec with thrombin and the control sequence at 20 μM and 38 sec with thrombin plus the consensus sequence at 20 μM, indicating specificity for thrombin inhibition at the level of the 7 mer.

Take “5' GGGGGTT 3' (chemistry not given here) [SEQ ID NO: 16]”: the thrombin clotting time came to 26 s.

With “5' GGTTGGG 3' (chemistry not given here) [SEQ ID NO: 15]”, the thrombin clotting time came to 38 s.
